Structures can show the parent of a compound that is named as a salt. One block for each compound: values may come before it.
How the values were obtained:
[1] = test system: CML cells (CFSE^max/CD34^+, CD34^+/CD38^−, CD34^+); assay: Annexin-V/7-AAD apoptosis staining; type: cell-based, human; settings: for effect on FTY720-induced apoptosis of quiescent cells: CD34^+ CML cells, GSK-3β inhibitor with FTY720
Protocol: (§1) CFSE-mediated tracking of cell division. Carboxyfluorescein diacetate succinimidyl diester (CFSE)-stained cells (CellTrace CFSE Proliferation Kit: Invitrogen) were cultured in the presence of the indicated drugs (dosed at time zero and at day three), and the cells were harvested after 3 or 6 days in culture, and stained with anti-CD34 PE, Annexin-V V450, and the viability stain 7-AAD (BD Bioscience) to determine the number of viable quiescent cells (CFSEmax/CD34^+/7-AAD− cells) and the percentage of quiescent and apoptosis-committed cells (CFSEmax/CD34+/Annexin V+/7-AAD±). Cells were sorted into dividing and quiescent populations for Western blot analysis. For assessment of mouse quiescent leukemic HSCs, Lin- cells from 8 week-induced SCLtTA/BCR-ABL1 mice were CFSE-stained and used as described above. Quiescent cells (CFSE^max/CD34^+) were reported as a fraction of the initial number of CD34^+ cells.

PP2A [2] = molecular target: T1, PP2A (Homo sapiens, UniProt P67775); settings: Roberts et al., Cancer Res 2010; cited from earlier work
T1 construct: PP2Ac assays from whole cell lysates; endogenous in cells; host or cells: CD34+/CD38- and CD34+/CD38+ primary CML and normal bone-marrow cells; immunoprecipitated with Millipore PP2Ac antibody

β-catenin = β-catenin immunofluorescence; type: cell-based, human; settings: CD34^+/CD38^− CML, leukemic LSK, and 32D-BCR/ABL cells
From the text: Immunofluorescence and proximity ligation assay. CD34^+/CD38^− cells from CML patient samples or LSK cells derived from induced leukemic mice were sorted, treated in liquid culture with the indicated drugs and cytospun onto glass slides. Slides were fixed in 3.7% formaldehyde, penneabilized with 0.05% Triton X-100, and stained with an Anti-®-catenin primary antibody (Cell signaling), a secondary goat F(ab′) anti-rabbit conjugated to Alexa Fluor 647, and the nuclear stain DAPI (Invitrogen); slides were mounted with Slowfade antifade reagent (Invitrogen). Microphotographs were obtained with a Zeiss LSM 510 confocal laser-scanning microscope with C-Apochromat 63/1.2 W objective. A minimum of three fields for each slide were acquired. For the Proximity Ligation Assay (PLA) CD34+/CD38− CML cells were treated, fixed, and permeabilized as described above. The slides were then simultaneously stained with a mix of mouse anti-PP2A (Millipore) and rabbit anti-SET (Globozyme) antibodies. The PLA procedure (Duolink; Olink Bioscience) was performed according to manufacturer instructions. An average of 20 z-stack ([…]) were captured with a Zeiss LSM 510 confocal laser-scanning microscope with C-Apochromat 63/1.2 W objective; at least three fields/slide were acquired. Three-dimensional projections were generated and positive signals/cell were calculated by ImageJ software (NIH).

S1PR1 = S1PR1 (Homo sapiens, UniProt P21453); assay: S1PR1 internalization; type: cell-based
PP2A [3] = molecular target: T1, PP2A; assay: PP2A phosphatase assay; type: cell-based
Protocol: PP2A phosphatase assay. PP2Ac assays from whole cell lysates were carried out using the PP2Ac immunoprecipitation phosphatase assay kit (Millipore). Briefly, protein lysates (50 μg) in 100 μl of 20 mM Hepes. pH 7.0, 100 mM NaCl, 5 μg of PP2Ac antibody (Millipore), and 25 μl of Protein A-agarose were added to 400 μl of 50 mM Tris, pH 7.0, 100 mM CaCl2, and IPs were carried out at 4° C. for 2 h. IPs were used in the phosphatase reaction according to the manufacturer's protocol.

[4] = test system: CFSE^max/CD34^+ CML cells; assay: CFSE-mediated tracking of quiescent cells, CML; type: cell-based, human
Protocol: as §1

B lymphocytes = assay: B-lymphopenia induction; settings: in vivo
[5] = test system: β-catenin-driven (LEF/TCF) transcriptional activity; assay: LEF/TCF reporter assay; type: cell-based, human; settings: CD34^+/CD38^− CML and 32D-BCR/ABL cells
Protocol: LEF/TCF reporter assay. CD34+/CD38− CML cells were transduced with pBAR or pfuBAR (negative control) ®-catenin lentiviral reporter constructs (54), puromycin-selected and treated with the indicated drugs. Luciferase was measured using the Bright-Glo Luciferase system (Promega).

CD34+/CD38− CML cells = assay: CFC/replating assay, CML cells; type: cell-based, human
Protocol: (§2) Long term culture-initiating cell (LTC-IC) and Colony-forming cell (CFC)/replating assays. 2×10^6 mononuclear CML cells were cultured with a 1:1 mixture of irradiated (80 Gy) IL-3/G-CSF-producing M2-10B4 and IL-3/KL-producing SI/SI murine fibroblasts in MyeloCult H5100 (StemCell Technologies) supplemented with hydrocortisone. Drugs were present during the first week of culture. Medium was replaced after 7 days, followed by weekly half-medium changes. After 6 weeks, adherent and floating cells were harvested and 5×10^4 cells plated into MethoCult H4435. LTC-IC-derived colonies were scored after 14 days. For CFC/replating, individual 14-day colonies from 10^3-10^5 CD34+/CD38− CML or 0.2×10^3-10^3 leukemic LSK cells plated in 0.9% H4435 or M3234 MethoCult, respectively, containing KL, G-CSF, GM-CSF, IL-3, IL-6, and Epo were replated and scored 2 weeks later.

CML cells = assay: Long term culture-initiating cell (LTC-IC) assay; type: cell-based, human; settings: drug during first week of 6-week culture, vs untreated
Protocol: as §2

[6] = test system: normal CD34^+ progenitors; assay: Toxicity to normal progenitors; type: cell-based, human; settings: at concentrations that impair Ph^+ HSC survival

T1 sequence (P67775 whole entry): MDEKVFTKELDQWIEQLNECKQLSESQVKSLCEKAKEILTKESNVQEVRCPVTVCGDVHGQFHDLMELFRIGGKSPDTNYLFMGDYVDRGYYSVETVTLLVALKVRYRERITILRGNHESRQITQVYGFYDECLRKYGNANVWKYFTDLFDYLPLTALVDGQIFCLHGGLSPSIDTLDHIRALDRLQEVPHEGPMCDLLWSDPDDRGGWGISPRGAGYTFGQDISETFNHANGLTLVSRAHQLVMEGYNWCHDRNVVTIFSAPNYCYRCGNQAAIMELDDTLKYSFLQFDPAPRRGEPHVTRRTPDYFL
Chain of S1PR1 (P21453 whole entry, species assumed): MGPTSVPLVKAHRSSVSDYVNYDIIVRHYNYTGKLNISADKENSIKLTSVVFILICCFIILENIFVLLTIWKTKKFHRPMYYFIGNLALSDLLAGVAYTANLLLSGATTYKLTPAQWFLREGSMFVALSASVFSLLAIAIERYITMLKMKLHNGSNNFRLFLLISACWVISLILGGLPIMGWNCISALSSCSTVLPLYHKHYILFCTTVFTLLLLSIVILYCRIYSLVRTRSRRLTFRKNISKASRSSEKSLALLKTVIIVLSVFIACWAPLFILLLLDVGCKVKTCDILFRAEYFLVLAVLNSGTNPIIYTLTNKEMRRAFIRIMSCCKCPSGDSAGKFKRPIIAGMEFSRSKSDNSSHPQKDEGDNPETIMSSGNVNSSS

Structure (SMILES): CCCCCCCCc1ccc(CCC(N)(CO)COP(=O)(O)O)cc1 (stereo not shown) [FTY-P]
apoptosis of quiescent/HSC-enriched CML cells ([1]; CFSE^max/CD34^+ or CD34^+/CD38^− CML cells): failed to induce apoptosis
PP2A activity induction (PP2A [2]): did not induce PP2A activity

Structure (SMILES): Cc1ccc(NC(=O)c2ccc(CN3CCN(C)CC3)cc2)cc1Nc1nccc(-c2cccnc2)n1 [imatinib, imatinib mesylate]
β-catenin degradation (β-catenin): but not imatinib (n=3) induced β-catenin degradation

Structure (SMILES): Cn1cc(C2=C(c3ccc(Cl)cc3Cl)C(=O)NC2=O)c2ccccc21 [SB216763]
effect on FTY720-induced apoptosis of quiescent cells [1]: abrogated FTY720-induced apoptosis

S1PR1 internalization (S1PR1): without triggering S1PR1 internalization
PP2A activation (PP2A [3]): activated PP2A
Structure (SMILES): CCCC(N)(CO)CCc1ccc(OCCCCCC(C)C)cc1 (stereo not shown) [OSU-2S]
effect on CML CFSE^max cells ([4]; CML n=9): significantly reduced
B-lymphopenia (B lymphocytes): without triggering S1PR1 internalization or inducing B-lymphopenia

β-catenin transcriptional activity (LEF/TCF luciferase) [5]: markedly impaired
Structure (SMILES): C=C[C@@]1(C)CC(=O)[C@@H]2[C@@]3(C)CCCC(C)(C)[C@@H]3[C@H](O)[C@H](OC(C)=O)[C@@]2(C)O1 [1,9-dideoxy-forskolin]

Structure (SMILES): C=C1[C@@H](O)[C@@H]2O[C@]3(CC[C@H](/C=C/[C@@H](C)[C@@H]4CC(C)=C[C@@]5(O[C@H](C[C@@](C)(O)C(=O)O)CC[C@H]5O)O4)O3)CC[C@H]2O[C@@H]1[C@@H](O)C[C@H](C)[C@H]1O[C@@]2(CCCCO2)CC[C@H]1C [okadaic acid]
effect on FTY720-induced decrease of CFSE^max HSCs ([4]; 0.25 nM okadaic acid with FTY720): antagonized

Structure (SMILES): [Cl-].[Li+] [LiCl, lithium chloride]
effect on FTY720-induced apoptosis of quiescent cells [1]: abrogated FTY720-induced apoptosis

β-catenin transcriptional activity (LEF/TCF luciferase) [5]: markedly impaired
Structure (SMILES): Cc1cnc(Nc2ccc(OCCN3CCCC3)cc2)nc1Nc1cccc(S(=O)(=O)NC(C)(C)C)c1 [TG101348]
decrease in CFSE^max (quiescent) CML HSCs ([4]; CFSE-labeled CD34^+ CML cells, FTY720 at 2.5 μM): 50%
reduction in replating efficiency (CD34+/CD38− CML cells): ~75%
inhibition of LTC-ICs (CML cells): ~80%
toxicity to normal CD34^+ progenitors [6]: toxicity of TG101348 to normal CD34^+ progenitors

Source: patent US9220706B2, “Inhibition of leukemic stem cells by PP2A activating agents” (Ohio State Innovation Foundation, priority 2012, dated 2015)
